The record followed here is US5643931A, “Bisoxadiazolidine derivative” (Yamanouchi Pharmaceutical Co., Ltd., priority 1993, dated 1997).

Molecules are shown by their SMILES.

This assay relates to kk mice. In words: Hypoglycemic action (blood sugar level decreasing ratio after 4 days of oral administration). It counts as in vivo. To be noted: 30 mg/day, daily for 4 days, in 0.5% methyl cellulose, six male kk mice per group, blood sampled before and on fifth day, *** = p<0.001. As to the method: Male kk mice of 4 to 5 w were purchased from CLEA Japan Inc. These animals were separately reared with a high calorie food (CMF, manufactured by Oriental Yeast), and the animals of which the body weight was more than 40 g were used in the test.
Measurement of the blood sugar level was carried out by collecting a 10 μl portion of blood from a tail vein, removing protein from the collected sample by its treatment with 100 μl of 0.33N perchloric acid, and after centrifugation, measuring glucose in the resulting supernatant by the glucose oxidase method. Six animals having a blood sugar level of more than 200 mg/dl were used as one group in the test.
Each drug was suspended in 0.5% methyl cellulose and orally administered daily for 4 days. Blood samples were collected before and on the fifth day of the drug administration from the tail vein. Blood sugar level was determined with the aforementioned method.
The hypoglycemic activity was expressed as the blood sugar level decreasing ratio to the pre-administration level and statistically evaluated as a significant threshold value of p=0.05.

Turning to `O=c1[nH]c(=O)n(Cc2ccc(Oc3cccc(Oc4ccc(Cn5oc(=O)[nH]c5=O)cc4)c3)cc2)o1` [Example 6, 1,3-Bis[4-[(3,5-dioxo-1,2,4-oxadiazolidin-2-yl)methyl]phenoxy]benzene], the “blood sugar level decreasing ratio to the pre-administration level” value is reported as 53%.
